From the supplement of paper PMC10307832

Key:
Assay in all cases: relative viability (nuclei count vs DMSO), 5 days (fraction); higher = more cells survive
[1] = compound: CN1CCN(c2ccc3nc(-c4c(N)c5c(F)cccc5[nH]c4=O)[nH]c3c2)CC1 [Dovitinib] + Nc1nc2[nH]cc(CCc3ccc(C(=O)N[C@@H](CCC(=O)O)C(=O)O)cc3)c2c(=O)[nH]1 [Pemetrexed] (partner 0.2 µM)
Summary of the method: (§1)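 Relative viability equals treated-well nuclei counts divided by vehicle-well nuclei counts. Counts came from 4× images of lung cancer cell lines grown in 1536-well plates for 5 days after pin-tool dosing on the day after seeding. Dosing used one drug alone or a fixed anchor-drug dose plus five library-drug doses (not always all listed) in √10 steps, and values are medians of duplicate plates.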

[2] = compound: CN1CCN(c2ccc3nc(-c4c(N)c5c(F)cccc5[nH]c4=O)[nH]c3c2)CC1 [Dovitinib] + Cc1nc(Nc2ncc(C(=O)Nc3c(C)cccc3Cl)s2)cc(N2CCN(CCO)CC2)n1 [Dasatinib] (partner 0.075 µM)
Summary of the method: as §1

[3] = compound: CN1CCN(c2ccc3nc(-c4c(N)c5c(F)cccc5[nH]c4=O)[nH]c3c2)CC1 [Dovitinib] + CS(=O)(=O)CCNCc1ccc(-c2ccc3ncnc(Nc4ccc(OCc5cccc(F)c5)c(Cl)c4)c3c2)o1 [Lapatinib] (partner 2 µM)
Summary of the method: as §1

[4] = compound: CN1CCN(c2ccc3nc(-c4c(N)c5c(F)cccc5[nH]c4=O)[nH]c3c2)CC1 [Dovitinib] + C[C@@H](Oc1cc(-c2cnn(C3CCNCC3)c2)cnc1N)c1c(Cl)ccc(F)c1Cl [Crizotinib] (partner 1 µM)
Summary of the method: as §1

Cell Line	relative viability ([1]; first compound 0.02 µM)	relative viability ([1]; first compound 0.06325 µM)	relative viability ([1]; first compound 0.2 µM)	relative viability ([1]; first compound 0.6325 µM)	relative viability ([1]; first compound 2 µM)	relative viability ([2]; first compound 0.02 µM)	relative viability ([2]; first compound 0.06325 µM)	relative viability ([2]; first compound 0.2 µM)	relative viability ([2]; first compound 0.6325 µM)	relative viability ([2]; first compound 2 µM)	relative viability ([3]; first compound 0.02 µM)	relative viability ([3]; first compound 0.06325 µM)	relative viability ([3]; first compound 0.2 µM)	relative viability ([3]; first compound 0.6325 µM)	relative viability ([3]; first compound 2 µM)	relative viability ([4]; first compound 0.02 µM)	relative viability ([4]; first compound 0.06325 µM)	relative viability ([4]; first compound 0.2 µM)	relative viability ([4]; first compound 0.6325 µM)	relative viability ([4]; first compound 2 µM)
LXF-289	0.883	0.893	0.864	0.962	0.894	0.201	0.206	0.263	0.253	0.266	0.813	0.904	0.88	0.867	0.873	0.736	0.816	0.789	0.794	0.838
CAL-12T	1.11	1.16	1.21	1.24	1.17	0.43	0.486	0.465	0.49	0.457	0.709	0.501	0.713	0.618	0.986	0.532	0.628	0.654	0.635	0.661
COR-L23	0.194	0.211	0.2	0.208	0.212	0.482	0.565	0.512	0.534	0.567	0.918	0.983	1.04	1.01	0.882	0.655	0.526	0.638	0.55	0.756
NCI-H1755	0.432	0.382	0.433	0.4	0.423	0.446	0.388	0.45	0.393	0.443	1.08	1.07	1.02	1.05	0.976	0.861	0.878	0.834	0.852	0.86
NCI-H1437	0.293	0.327	0.31	0.288	0.308	0.414	0.397	0.353	0.39	0.452	0.813	0.802	0.843	0.821	0.788	0.867	0.947	0.781	0.929	0.868
NCI-H2085	0.941	0.991	1.03	0.871	0.958	0.234	0.261	0.235	0.248	0.319	0.834	0.785	0.723	0.894	0.818	0.753	0.904	0.851	0.856	0.9
H3255	0.609	0.579	0.568	0.64	0.599	0.405	0.374	0.424	0.445	0.369	0.217	0.266	0.288	0.266	0.255	0.898	0.903	0.854	0.929	0.871
NCI-H650	0.908	0.856	0.898	0.983	0.956	0.48	0.383	0.49	0.5	0.432	0.91	0.819	0.784	0.896	1.12	0.771	0.638	0.563	0.645	0.789
LOU-NH91	0.368	0.386	0.404	0.363	0.358	0.586	0.553	0.549	0.64	0.574	0.794	0.675	0.717	0.858	0.726	0.767	0.75	0.729	0.74	0.798
NCI-H1650	0.404	0.347	0.395	0.339	0.354	0.335	0.26	0.365	0.348	0.384	0.656	0.698	0.792	0.743	0.875	0.945	1.02	1.06	1.14	1.02
NCI-H3122	0.194	0.207	0.199	0.186	0.189	0.721	0.857	0.914	0.832	0.749	0.996	1.01	0.967	1.05	1.02	0.294	0.27	0.287	0.284	0.263
PC-3 [JPC-3]	1.12	1.12	1.16	1.3	1.21	1.03	0.999	0.967	1	0.986	0.483	0.398	0.466	0.488	0.47	0.928	0.923	0.963	1.01	0.984
NCI-H1651	0.553	0.544	0.563	0.64	0.544	0.388	0.43	0.484	0.469	0.486	0.914	1	0.913	0.777	0.929	0.927	0.882	0.824	0.829	0.858
NCI-H2087	0.755	0.668	0.661	0.716	0.616	0.836	0.847	0.869	0.889	0.98	0.893	0.958	1.01	1.02	1.16	0.817	0.66	0.878	0.796	0.778
